{"source": "ChEMBL document CHEMBL1144385", "about": "“Solid-phase synthesis and antibacterial evaluations of N-demethylvancomycin derivatives” (2005)", "format_in_all_cases": "functional", "key": {"Staphylococcus aureus [1]": {"tested_on": "Staphylococcus aureus", "experiment": "Minimum inhibitory concentration against growth of Methicillin resistant […] aureus"}, "Staphylococcus aureus [2]": {"tested_on": "Staphylococcus aureus", "experiment": "Minimum inhibitory concentration against growth of […] aureus (ATCC 29213)"}, "Enterococcus faecalis [3]": {"tested_on": "Enterococcus faecalis", "experiment": "Minimum inhibitory concentration against growth of Enterococcus faecalis (ATCC 29212)"}, "Enterococcus faecalis [4]": {"tested_on": "Enterococcus faecalis", "experiment": "Minimum inhibitory concentration against growth of vancomycin-resistant Enterococcus faecalis (ATCC 51299)"}}, "data": [{"smiles": "CC(C)C[C@@H](NC(=O)OCC1c2ccccc2-c2ccccc21)C(=O)N[C@H]1C(=O)N[C@@H](CC(N)=O)C(=O)N[C@H]2C(=O)N[C@H]3C(=O)N[C@H](C(=O)N[C@H](C(=O)NCC(=O)O)c4cc(O)cc(O)c4-c4cc3ccc4O)[C@H](O)c3ccc(c(Cl)c3)Oc3cc2cc(c3O[C@@H]2O[C@@H](CO)[C@@H](O)[C@H](O)[C@@H]2O[C@H]2C[C@](C)(N)[C@H](O)[C@H](C)O2)Oc2ccc(cc2Cl)[C@H]1O", "values": [{"measurement": "MIC", "setting": "Staphylococcus aureus [1]", "value": 5, "unit": "µg/mL"}, {"measurement": "MIC", "setting": "Staphylococcus aureus [2]", "value": 1.25, "unit": "µg/mL"}, {"measurement": "MIC", "setting": "Enterococcus faecalis [3]", "value": 5, "unit": "µg/mL"}, {"measurement": "MIC", "setting": "Enterococcus faecalis [4]", "value": "> 10", "unit": "µg/mL"}]}, {"smiles": "C/C=C/CN(C/C=C/C)[C@H](CC(C)C)C(=O)N[C@H]1C(=O)N[C@@H](CC(N)=O)C(=O)N[C@H]2C(=O)N[C@H]3C(=O)N[C@H](C(=O)N[C@H](C(=O)NCC(=O)O)c4cc(O)cc(O)c4-c4cc3ccc4O)[C@H](O)c3ccc(c(Cl)c3)Oc3cc2cc(c3O[C@@H]2O[C@@H](CO)[C@@H](O)[C@H](O)[C@@H]2O[C@H]2C[C@](C)(Nc3ccc(Cl)cc3)[C@H](O)[C@H](C)O2)Oc2ccc(cc2Cl)[C@H]1O", "values": [{"measurement": "MIC", "setting": "Staphylococcus aureus [1]", "value": "> 10", "unit": "µg/mL"}, {"measurement": "MIC", "setting": "Staphylococcus aureus [2]", "value": "> 10", "unit": "µg/mL"}, {"measurement": "MIC", "setting": "Enterococcus faecalis [3]", "value": "> 10", "unit": "µg/mL"}, {"measurement": "MIC", "setting": "Enterococcus faecalis [4]", "value": "> 10", "unit": "µg/mL"}]}, {"smiles": "CN[C@H](CC(C)C)C(=O)N[C@H]1C(=O)N[C@@H](CC(N)=O)C(=O)N[C@H]2C(=O)N[C@H]3C(=O)N[C@H](C(=O)N[C@H](C(=O)NCC(=O)O)c4cc(O)cc(O)c4-c4cc3ccc4O)[C@H](O)c3ccc(c(Cl)c3)Oc3cc2cc(c3O[C@@H]2O[C@@H](CO)[C@@H](O)[C@H](O)[C@@H]2O[C@H]2C[C@](C)(NC(=O)OCC3c4ccccc4-c4ccccc43)[C@H](O)[C@H](C)O2)Oc2ccc(cc2Cl)[C@H]1O", "values": [{"measurement": "MIC", "setting": "Staphylococcus aureus [1]", "value": 5, "unit": "µg/mL"}, {"measurement": "MIC", "setting": "Staphylococcus aureus [2]", "value": "> 10", "unit": "µg/mL"}, {"measurement": "MIC", "setting": "Enterococcus faecalis [3]", "value": 10, "unit": "µg/mL"}, {"measurement": "MIC", "setting": "Enterococcus faecalis [4]", "value": 5, "unit": "µg/mL"}]}, {"smiles": "CC(C)C[C@@H](Nc1ccc(F)cc1)C(=O)N[C@H]1C(=O)N[C@@H](CC(N)=O)C(=O)N[C@H]2C(=O)N[C@H]3C(=O)N[C@H](C(=O)N[C@H](C(=O)NCC(=O)O)c4cc(O)cc(O)c4-c4cc3ccc4O)[C@H](O)c3ccc(c(Cl)c3)Oc3cc2cc(c3O[C@@H]2O[C@@H](CO)[C@@H](O)[C@H](O)[C@@H]2O[C@H]2C[C@](C)(Nc3ccc(F)cc3)[C@H](O)[C@H](C)O2)Oc2ccc(cc2Cl)[C@H]1O", "values": [{"measurement": "MIC", "setting": "Staphylococcus aureus [1]", "value": "> 10", "unit": "µg/mL"}, {"measurement": "MIC", "setting": "Staphylococcus aureus [2]", "value": "> 10", "unit": "µg/mL"}, {"measurement": "MIC", "setting": "Enterococcus faecalis [3]", "value": "> 10", "unit": "µg/mL"}, {"measurement": "MIC", "setting": "Enterococcus faecalis [4]", "value": "> 10", "unit": "µg/mL"}]}, {"smiles": "CCC(CC)N[C@H](CC(C)C)C(=O)N[C@H]1C(=O)N[C@@H](CC(N)=O)C(=O)N[C@H]2C(=O)N[C@H]3C(=O)N[C@H](C(=O)N[C@H](C(=O)NCC(=O)O)c4cc(O)cc(O)c4-c4cc3ccc4O)[C@H](O)c3ccc(c(Cl)c3)Oc3cc2cc(c3O[C@@H]2O[C@@H](CO)[C@@H](O)[C@H](O)[C@@H]2OC2C[C@](C)(NC(CC)CC)[C@H](O)[C@H](C)O2)Oc2ccc(cc2Cl)[C@H]1O", "note": "(single isomer, unassigned)", "values": [{"measurement": "MIC", "setting": "Staphylococcus aureus [1]", "value": "> 10", "unit": "µg/mL"}, {"measurement": "MIC", "setting": "Staphylococcus aureus [2]", "value": "> 10", "unit": "µg/mL"}, {"measurement": "MIC", "setting": "Enterococcus faecalis [3]", "value": "> 10", "unit": "µg/mL"}, {"measurement": "MIC", "setting": "Enterococcus faecalis [4]", "value": "> 10", "unit": "µg/mL"}]}, {"smiles": "CCC(CC)N[C@H](CC(C)C)C(=O)N[C@H]1C(=O)N[C@@H](CC(N)=O)C(=O)N[C@H]2C(=O)N[C@H]3C(=O)N[C@H](C(=O)N[C@H](C(=O)NCC(=O)O)c4cc(O)cc(O)c4-c4cc3ccc4O)[C@H](O)c3ccc(c(Cl)c3)Oc3cc2cc(c3O[C@@H]2O[C@@H](CO)[C@@H](O)[C@H](O)[C@@H]2O[C@H]2C[C@](C)(Nc3ccc(Cl)cc3)[C@H](O)[C@H](C)O2)Oc2ccc(cc2Cl)[C@H]1O", "values": [{"measurement": "MIC", "setting": "Staphylococcus aureus [1]", "value": "> 10", "unit": "µg/mL"}, {"measurement": "MIC", "setting": "Staphylococcus aureus [2]", "value": "> 10", "unit": "µg/mL"}, {"measurement": "MIC", "setting": "Enterococcus faecalis [3]", "value": "> 10", "unit": "µg/mL"}, {"measurement": "MIC", "setting": "Enterococcus faecalis [4]", "value": "> 10", "unit": "µg/mL"}]}, {"smiles": "CC(C)C[C@H](C(=O)N[C@H]1C(=O)N[C@@H](CC(N)=O)C(=O)N[C@H]2C(=O)N[C@H]3C(=O)N[C@H](C(=O)N[C@H](C(=O)NCC(=O)O)c4cc(O)cc(O)c4-c4cc3ccc4O)[C@H](O)c3ccc(c(Cl)c3)Oc3cc2cc(c3O[C@@H]2O[C@@H](CO)[C@@H](O)[C@H](O)[C@@H]2O[C@H]2C[C@](C)(N)[C@H](O)[C@H](C)O2)Oc2ccc(cc2Cl)[C@H]1O)N(C)C(=O)OCC1c2ccccc2-c2ccccc21", "values": [{"measurement": "MIC", "setting": "Staphylococcus aureus [1]", "value": 10, "unit": "µg/mL"}, {"measurement": "MIC", "setting": "Staphylococcus aureus [2]", "value": 10, "unit": "µg/mL"}, {"measurement": "MIC", "setting": "Enterococcus faecalis [3]", "value": 10, "unit": "µg/mL"}, {"measurement": "MIC", "setting": "Enterococcus faecalis [4]", "value": "> 10", "unit": "µg/mL"}]}, {"smiles": "CCC(CC)N[C@H](CC(C)C)C(=O)N[C@H]1C(=O)N[C@@H](CC(N)=O)C(=O)N[C@H]2C(=O)N[C@H]3C(=O)N[C@H](C(=O)N[C@H](C(=O)NCC(=O)O)c4cc(O)cc(O)c4-c4cc3ccc4O)[C@H](O)c3ccc(c(Cl)c3)Oc3cc2cc(c3O[C@@H]2O[C@@H](CO)[C@@H](O)[C@H](O)[C@@H]2O[C@H]2C[C@](C)(Nc3ccc(OC)cc3)[C@H](O)[C@H](C)O2)Oc2ccc(cc2Cl)[C@H]1O", "values": [{"measurement": "MIC", "setting": "Staphylococcus aureus [1]", "value": "> 10", "unit": "µg/mL"}, {"measurement": "MIC", "setting": "Staphylococcus aureus [2]", "value": "> 10", "unit": "µg/mL"}, {"measurement": "MIC", "setting": "Enterococcus faecalis [3]", "value": "> 10", "unit": "µg/mL"}, {"measurement": "MIC", "setting": "Enterococcus faecalis [4]", "value": "> 10", "unit": "µg/mL"}]}, {"smiles": "CC(C)C[C@@H](N)C(=O)N[C@H]1C(=O)N[C@@H](CC(N)=O)C(=O)N[C@H]2C(=O)N[C@H]3C(=O)N[C@H](C(=O)N[C@H](C(=O)NCC(=O)O)c4cc(O)cc(O)c4-c4cc3ccc4O)[C@H](O)c3ccc(c(Cl)c3)Oc3cc2cc(c3O[C@@H]2O[C@@H](CO)[C@@H](O)[C@H](O)[C@@H]2O[C@H]2C[C@](C)(Nc3ccc(-c4ccccc4)cc3)[C@H](O)[C@H](C)O2)Oc2ccc(cc2Cl)[C@H]1O", "values": [{"measurement": "MIC", "setting": "Staphylococcus aureus [1]", "value": 5, "unit": "µg/mL"}, {"measurement": "MIC", "setting": "Staphylococcus aureus [2]", "value": 5, "unit": "µg/mL"}, {"measurement": "MIC", "setting": "Enterococcus faecalis [3]", "value": 5, "unit": "µg/mL"}, {"measurement": "MIC", "setting": "Enterococcus faecalis [4]", "value": "> 10", "unit": "µg/mL"}]}, {"smiles": "CC(C)C[C@@H](N)C(=O)N[C@H]1C(=O)N[C@@H](CC(N)=O)C(=O)N[C@H]2C(=O)N[C@H]3C(=O)N[C@H](C(=O)N[C@H](C(=O)NCC(=O)O)c4cc(O)cc(O)c4-c4cc3ccc4O)[C@H](O)c3ccc(c(Cl)c3)Oc3cc2cc(c3O[C@@H]2O[C@@H](CO)[C@@H](O)[C@H](O)[C@@H]2O[C@H]2C[C@](C)(Nc3ccc(Cl)cc3)[C@H](O)[C@H](C)O2)Oc2ccc(cc2Cl)[C@H]1O", "values": [{"measurement": "MIC", "setting": "Staphylococcus aureus [1]", "value": 5, "unit": "µg/mL"}, {"measurement": "MIC", "setting": "Staphylococcus aureus [2]", "value": 5, "unit": "µg/mL"}, {"measurement": "MIC", "setting": "Enterococcus faecalis [3]", "value": 10, "unit": "µg/mL"}, {"measurement": "MIC", "setting": "Enterococcus faecalis [4]", "value": "> 10", "unit": "µg/mL"}]}]}
